Holding throughout (test): MIC, broth microdilution in Meuller-Hinton broth (NCCLS)
In one assay the test system is 602 S. haemolyticus. The format is cell-based, Staphylococus haemolyticus. The note with it: clinical isolate. How it is done:
(§1) Antibacterial activity in vitro was investigated by broth microdilution method in Meuller-Hinton broth as recommended by NCCLS. All strains tested were clinical isolates either sensitive or resistant to natural glycopeptides. Results are reported in the tables as MIC (minimal inhibitory concentration) in μg/ml.
(§2) The glycopeptides were tested against a variety of strains, indicated below, including Staphylococus epidermidis, Staphylococus haemolyticus, glycopeptides-intermediate Staphylococus aureus (GISA), glocopeptide-sensitive Enterococcus faecalis (GSE), and glocopeptide-resistant Enterococcus faecalis (GRE). Results are shown in the table as minimum inhibitory concentration (MIC) in units of μg/ml: […]

Another assay relates to 533 S. epidermidis. The assay is classed as cell-based, Staphylococus epidermidis. The note with it: clinical isolate. As for the experimental part:
as §1, §2

In another assay the test system is 3798 S. aureus (GISA). The assay is classed as cell-based, Staphylococus aureus. To be noted: glycopeptides-intermediate clinical isolate. As for the experimental part:
as §1, §2

The next assay concerns 3797 S. aureus (GISA). The format is cell-based, Staphylococus aureus. The note with it: glycopeptides-intermediate clinical isolate. How it is done:
as §1, §2

A further assay has as its system 560 E. faecalis (GRE). The format is cell-based, Enterococcus faecalis. The note with it: glycopeptide-resistant clinical isolate. As for the experimental part: as §1, §2
The next assay deals with 559 E. faecalis (GSE). The format is cell-based, Enterococcus faecalis. To be noted: glycopeptide-sensitive clinical isolate. How it is done:
as §1, §2

In a further assay the test system is 568 E. faecium (GSE). The format is cell-based. To be noted: glycopeptide-sensitive clinical isolate. How it is done:
as §1, §2

Another assay relates to 569 E. faecium (GRE). The assay is classed as cell-based. The note with it: glycopeptide-resistant clinical isolate. How it is done: as §1, §2

In brackets after ≈: the same amount, converted by molar mass.

Turning to `CNC(CC(C)C)C(=O)NC1C(=O)NC(CC(N)=O)C(=O)NC2C(=O)NC3C(=O)NC(C(=O)NC(C(=O)O)c4cc(O)cc(O)c4-c4cc3ccc4O)C(OC3CC(C)(N)C(O)C(C)O3)c3ccc(cc3)Oc3cc2cc(c3OC2OC(CO)C(O)C(O)C2OC2CC(C)(NC(=O)CNCc3ccc(OCc4ccccc4)cc3)C(O)C(C)O2)Oc2ccc(cc2Cl)C1O` (stereo not drawn) [Compound 223], the “MIC 602 S. haemolyticus” value in the assay on 602 S. haemolyticus is 4 µg/mL (≈ 2.21 µM). Also, in the assay with 533 S. epidermidis, the “MIC 533 S. epidermidis” value came out at 2 µg/mL (≈ 1.1 µM). The “MIC 3798 S. aureus (GISA)” value against 3798 S. aureus (GISA) came to 8 µg/mL (≈ 4.42 µM). The “MIC 3797 S. aureus (GISA)” value in the assay with 3797 S. aureus (GISA) was determined as 8 µg/mL (≈ 4.42 µM). Besides, the “MIC 560 E. faecalis (GRE)” value in the assay on 560 E. faecalis (GRE) is 64 µg/mL (≈ 35.3 µM). For the same compound, the “MIC 559 E. faecalis (GSE)” value in the assay on 559 E. faecalis (GSE) amounted to 2 µg/mL (≈ 1.1 µM). Besides, the “MIC 568 E. faecium (GSE)” value with 568 E. faecium (GSE) was determined as 2 µg/mL (≈ 1.1 µM). Moreover, the “MIC 569 E. faecium (GRE)” value against 569 E. faecium (GRE) was determined as 16 µg/mL (≈ 8.83 µM).

As for `CNC(CC(C)C)C(=O)NC1C(=O)NC(CC(N)=O)C(=O)NC2C(=O)NC3C(=O)NC(C(=O)NC(C(=O)O)c4cc(O)cc(O)c4-c4cc3ccc4O)C(OC3CC(C)(N)C(O)C(C)O3)c3ccc(cc3)Oc3cc2cc(c3OC2OC(CO)C(O)C(O)C2OC2CC(C)(NC(=O)CNCc3c[nH]c4ccc(OCc5ccccc5)cc34)C(O)C(C)O2)Oc2ccc(cc2Cl)C1O` (stereo not drawn) [Compound 224], the “MIC 602 S. haemolyticus” value with 602 S. haemolyticus worked out at 2 µg/mL (≈ 1.08 µM). The “MIC 533 S. epidermidis” value against 533 S. epidermidis worked out at 2 µg/mL (≈ 1.08 µM). Moreover, the “MIC 3798 S. aureus (GISA)” value with 3798 S. aureus (GISA) is 8 µg/mL (≈ 4.32 µM). In addition, in the assay on 3797 S. aureus (GISA), the “MIC 3797 S. aureus (GISA)” value turned out to be 8 µg/mL (≈ 4.32 µM). Further, the “MIC 560 E. faecalis (GRE)” value with 560 E. faecalis (GRE) is >64 µg/mL. The “MIC 559 E. faecalis (GSE)” value in the assay with 559 E. faecalis (GSE) came to 2 µg/mL (≈ 1.08 µM). The “MIC 568 E. faecium (GSE)” value against 568 E. faecium (GSE) is 1 µg/mL (≈ 0.54 µM). In addition, the “MIC 569 E. faecium (GRE)” value in the assay on 569 E. faecium (GRE) stood at 16 µg/mL (≈ 8.65 µM).

On to `CNC(CC(C)C)C(=O)NC1C(=O)NC(CC(N)=O)C(=O)NC2C(=O)NC3C(=O)NC(C(=O)NC(C(=O)O)c4cc(O)cc(O)c4-c4cc3ccc4O)C(OC3CC(C)(N)C(O)C(C)O3)c3ccc(cc3)Oc3cc2cc(c3OC2OC(CO)C(O)C(O)C2OC2CC(C)(NC(=O)CNCc3cn(Cc4ccccc4)c4ccccc34)C(O)C(C)O2)Oc2ccc(cc2Cl)C1O` (stereo not drawn) [Compound 225], for which, in the assay on 602 S. haemolyticus, the “MIC 602 S. haemolyticus” value is 2 µg/mL (≈ 1.09 µM). In addition, the “MIC 533 S. epidermidis” value in the assay with 533 S. epidermidis amounted to 1 µg/mL (≈ 0.545 µM). In the assay with 3798 S. aureus (GISA), the “MIC 3798 S. aureus (GISA)” value turned out to be 4 µg/mL (≈ 2.18 µM). Besides, the “MIC 3797 S. aureus (GISA)” value with 3797 S. aureus (GISA) was determined as 4 µg/mL (≈ 2.18 µM). Also, the “MIC 560 E. faecalis (GRE)” value against 560 E. faecalis (GRE) was 64 µg/mL (≈ 34.9 µM). Besides, the “MIC 559 E. faecalis (GSE)” value in the assay on 559 E. faecalis (GSE) was 2 µg/mL (≈ 1.09 µM). The “MIC 568 E. faecium (GSE)” value with 568 E. faecium (GSE) is 4 µg/mL (≈ 2.18 µM). In addition, the “MIC 569 E. faecium (GRE)” value against 569 E. faecium (GRE) was found to be 16 µg/mL (≈ 8.72 µM).

As to `CNC(CC(C)C)C(=O)NC1C(=O)NC(CC(N)=O)C(=O)NC2C(=O)NC3C(=O)NC(C(=O)NC(C(=O)O)c4cc(O)cc(O)c4-c4cc3ccc4O)C(OC3CC(C)(N)C(O)C(C)O3)c3ccc(cc3)Oc3cc2cc(c3OC2OC(CO)C(O)C(O)C2OC2CC(C)(NC(=O)[C@@H](N)Cc3ccc(OCc4ccccc4)cc3)C(O)C(C)O2)Oc2ccc(cc2Cl)C1O` (stereo partly drawn) [Compound 228], in the assay with 602 S. haemolyticus, the “MIC 602 S. haemolyticus” value was 4 µg/mL (≈ 2.21 µM). Also, the “MIC 533 S. epidermidis” value against 533 S. epidermidis is 4 µg/mL (≈ 2.21 µM). For the same compound, in the assay with 3798 S. aureus (GISA), the “MIC 3798 S. aureus (GISA)” value amounted to 16 µg/mL (≈ 8.83 µM). Further, the “MIC 3797 S. aureus (GISA)” value against 3797 S. aureus (GISA) stood at 16 µg/mL (≈ 8.83 µM). Further, the “MIC 560 E. faecalis (GRE)” value against 560 E. faecalis (GRE) was >64 µg/mL. In addition, the “MIC 559 E. faecalis (GSE)” value against 559 E. faecalis (GSE) turned out to be 2 µg/mL (≈ 1.1 µM). Further, in the assay with 568 E. faecium (GSE), the “MIC 568 E. faecium (GSE)” value stood at 2 µg/mL (≈ 1.1 µM). In addition, the “MIC 569 E. faecium (GRE)” value against 569 E. faecium (GRE) was >64 µg/mL.

Regarding `CNC(CC(C)C)C(=O)NC1C(=O)NC(CC(N)=O)C(=O)NC2C(=O)NC3C(=O)NC(C(=O)NC(C(=O)O)c4cc(O)cc(O)c4-c4cc3ccc4O)C(OC3CC(C)(N)C(O)C(C)O3)c3ccc(cc3)Oc3cc2cc(c3OC2OC(CO)C(O)C(O)C2OC2CC(C)(NC(=O)[C@H](N)Cc3ccccc3)C(O)C(C)O2)Oc2ccc(cc2Cl)C1O` (stereo partly drawn) [Compound 229], in the assay with 602 S. haemolyticus, the “MIC 602 S. haemolyticus” value was 1 µg/mL (≈ 0.586 µM). Also, the “MIC 533 S. epidermidis” value in the assay on 533 S. epidermidis was 1 µg/mL (≈ 0.586 µM). The “MIC 3798 S. aureus (GISA)” value in the assay on 3798 S. aureus (GISA) was >32 µg/mL. The “MIC 3797 S. aureus (GISA)” value in the assay on 3797 S. aureus (GISA) is >32 µg/mL. The “MIC 560 E. faecalis (GRE)” value with 560 E. faecalis (GRE) is >64 µg/mL. The “MIC 559 E. faecalis (GSE)” value with 559 E. faecalis (GSE) came to 0.5 µg/mL (≈ 0.293 µM). Besides, in the assay with 568 E. faecium (GSE), the “MIC 568 E. faecium (GSE)” value was determined as 0.25 µg/mL (≈ 0.147 µM). Also, in the assay with 569 E. faecium (GRE), the “MIC 569 E. faecium (GRE)” value is >64 µg/mL.

Turning to `CNC(CC(C)C)C(=O)NC1C(=O)NC(CC(N)=O)C(=O)NC2C(=O)NC3C(=O)NC(C(=O)NC(C(=O)O)c4cc(O)cc(O)c4-c4cc3ccc4O)C(OC3CC(C)(N)C(O)C(C)O3)c3ccc(cc3)Oc3cc2cc(c3OC2OC(CO)C(O)C(O)C2OC2CC(C)(NC(=O)[C@@H](N)Cc3ccccc3)C(O)C(C)O2)Oc2ccc(cc2Cl)C1O` (stereo partly drawn) [Compound 230], the “MIC 602 S. haemolyticus” value against 602 S. haemolyticus turned out to be 4 µg/mL (≈ 2.35 µM). The “MIC 533 S. epidermidis” value in the assay with 533 S. epidermidis came out at 4 µg/mL (≈ 2.35 µM). Besides, in the assay on 3798 S. aureus (GISA), the “MIC 3798 S. aureus (GISA)” value was >32 µg/mL. Besides, in the assay with 3797 S. aureus (GISA), the “MIC 3797 S. aureus (GISA)” value is >32 µg/mL. Moreover, in the assay on 560 E. faecalis (GRE), the “MIC 560 E. faecalis (GRE)” value is >64 µg/mL. Further, in the assay on 559 E. faecalis (GSE), the “MIC 559 E. faecalis (GSE)” value is 2 µg/mL (≈ 1.17 µM). The “MIC 568 E. faecium (GSE)” value against 568 E. faecium (GSE) was found to be 2 µg/mL (≈ 1.17 µM). For the same compound, the “MIC 569 E. faecium (GRE)” value with 569 E. faecium (GRE) is >64 µg/mL.

The values above are taken from patent publication US7632918B2, “Semi-synthetic glycopeptides with antibiotic activity” (Novartis Vaccines and Diagnostics, Inc., priority 2005, dated 2009).
